Experiments:
human HSD17B13 [1] = target: T1, human HSD17B13 (Homo sapiens, UniProt Q7Z5P4); assay: Substrate screening of steroid and bioactive lipid libraries against purified recombinant HSD17B13 (NADH-linked luciferase assay); format: biochemical; conditions: for HSD17B13 Enzymatic Activity Relative Light Units: 500 μM NAD+, 100 ng enzyme, 3 hours at 23° C.; for HSD17B13 Enzymatic Activity Percent Estradiol Control: normalized to 50 μM estradiol after subtraction of 5% DMSO
T1 sequence (Q7Z5P4 20-300): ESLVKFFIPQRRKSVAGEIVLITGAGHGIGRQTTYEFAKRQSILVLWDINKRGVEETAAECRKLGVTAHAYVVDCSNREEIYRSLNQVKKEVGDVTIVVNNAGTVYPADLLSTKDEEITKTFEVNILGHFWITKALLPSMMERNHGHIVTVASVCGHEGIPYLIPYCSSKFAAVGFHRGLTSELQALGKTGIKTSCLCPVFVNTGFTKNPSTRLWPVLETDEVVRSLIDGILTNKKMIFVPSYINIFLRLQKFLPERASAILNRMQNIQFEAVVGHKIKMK
How it was run: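 Substrates (bioactive lipids 5 μM, steroids 50 μM; 5% DMSO) tested with 500 μM NAD+ and 100 ng recombinant human HSD17B13 in 0.2 M Tris-HCl pH 7.5, 3 h, 23° C. Luminescent NADH detection followed 1 h later; RLU normalized to estradiol (50 μM, 100%) and DMSO (0%) controls.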

HSD17B4 = target: T2, HSD17B4 (Homo sapiens, UniProt P51659); assay: Steroid substrate panel against HSD17B family member B4; format: biochemical; conditions: substrate at 50 μM; estradiol set as 100%
T2 construct: made in house
T2 sequence (P51659 1-736): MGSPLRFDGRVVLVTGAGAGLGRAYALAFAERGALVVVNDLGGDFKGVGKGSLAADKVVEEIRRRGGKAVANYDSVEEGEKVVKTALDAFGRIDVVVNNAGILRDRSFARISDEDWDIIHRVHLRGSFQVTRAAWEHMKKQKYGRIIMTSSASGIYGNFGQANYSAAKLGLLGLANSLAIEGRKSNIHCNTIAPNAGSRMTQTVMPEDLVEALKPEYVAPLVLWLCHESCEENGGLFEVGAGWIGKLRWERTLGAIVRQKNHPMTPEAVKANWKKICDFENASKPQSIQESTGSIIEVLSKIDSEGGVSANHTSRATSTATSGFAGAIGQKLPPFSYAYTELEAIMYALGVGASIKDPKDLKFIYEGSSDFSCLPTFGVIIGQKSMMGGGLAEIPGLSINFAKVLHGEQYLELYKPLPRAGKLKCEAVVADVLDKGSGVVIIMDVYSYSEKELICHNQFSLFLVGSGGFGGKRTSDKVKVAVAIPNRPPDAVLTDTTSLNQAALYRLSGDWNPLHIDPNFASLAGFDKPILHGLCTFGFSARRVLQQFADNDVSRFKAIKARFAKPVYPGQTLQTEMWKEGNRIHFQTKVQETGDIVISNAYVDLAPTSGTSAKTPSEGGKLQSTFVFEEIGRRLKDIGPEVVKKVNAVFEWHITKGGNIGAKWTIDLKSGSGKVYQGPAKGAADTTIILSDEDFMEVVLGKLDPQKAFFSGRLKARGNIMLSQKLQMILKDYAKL
Protocol: (§1) To understand the functional consequences of premature truncation of the HSD17B13 protein due to rs72613567:TA (the associated variant, rs72613567, is an insertion of an adenine adjacent to the donor splice site of exon six (TA allele)), the enzymatic activity of isoforms A and D was evaluated in vitro using recombinant protein and nicotinamide […] dinucleotide as cofactor. Reactions were performed in a final volume of 40 μl of assay buffer (0.2 M Tris-HCl, pH 7.5) which contained 500 μM NAD^+, 5 μM bioactive lipid or 50 μM steroid (all in a final concentration of 5% DMSO), and 100 ng of recombinant human HSD17B13. Reactions were incubated for 3 hours, at 23° C., after which an equal volume detection reagent was added. Following a 1 hour incubation at 23° C., the relative light units (RLUs) were measured on an Envision Plate Reader (Perkin Elmer). Raw RLU values were normalized as percent of control (50 μM estradiol) following subtraction of negative control (5% DMSO) using the following formula: Percent of control (POC)=100×(Sample (RLU)−Negative CTRLaverage)/(Positive CTRLaverage−Negative CTRLaverage).
(§2) In order to determine specificity of compounds with inhibitory activity against HSD17B13, assays for selected members of the HSD17B family which includes HSD17B1-HSD17B14 were established. As a first step, selected family members were expressed, purified and tested for activity a using a steroid substrate panel. Substrates from the steroid panel were tested at 50 μM, using the standard assay protocol. Activity against the substrates for each HSD17B family member were normalized to Percent of Control (POC). The control, estradiol, was set as 100%.

HSD17B2 = target: T3, HSD17B2 (Homo sapiens, UniProt P37059); assay: Steroid substrate panel against HSD17B family member B2; format: biochemical; conditions: substrate at 50 μM; estradiol set as 100%
T3 construct: made in house
T3 sequence (P37059 1-387): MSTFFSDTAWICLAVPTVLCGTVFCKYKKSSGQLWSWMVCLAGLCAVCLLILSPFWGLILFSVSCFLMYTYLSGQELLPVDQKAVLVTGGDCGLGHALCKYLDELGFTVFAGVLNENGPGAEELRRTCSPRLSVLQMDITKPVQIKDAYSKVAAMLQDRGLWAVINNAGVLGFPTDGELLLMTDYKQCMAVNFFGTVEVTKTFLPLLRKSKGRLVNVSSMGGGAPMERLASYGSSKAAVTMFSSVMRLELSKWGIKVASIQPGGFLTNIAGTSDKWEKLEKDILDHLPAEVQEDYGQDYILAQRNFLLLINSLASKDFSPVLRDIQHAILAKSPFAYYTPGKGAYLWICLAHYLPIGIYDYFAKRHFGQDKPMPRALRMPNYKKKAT
Protocol: as §1, §2

HSD17B5 = target: T4, HSD17B5 (Homo sapiens, UniProt P42330); assay: Steroid substrate panel against HSD17B family member B5; format: biochemical; conditions: substrate at 50 μM; estradiol set as 100%
T4 construct: made in house
T4 sequence (P42330 1-323): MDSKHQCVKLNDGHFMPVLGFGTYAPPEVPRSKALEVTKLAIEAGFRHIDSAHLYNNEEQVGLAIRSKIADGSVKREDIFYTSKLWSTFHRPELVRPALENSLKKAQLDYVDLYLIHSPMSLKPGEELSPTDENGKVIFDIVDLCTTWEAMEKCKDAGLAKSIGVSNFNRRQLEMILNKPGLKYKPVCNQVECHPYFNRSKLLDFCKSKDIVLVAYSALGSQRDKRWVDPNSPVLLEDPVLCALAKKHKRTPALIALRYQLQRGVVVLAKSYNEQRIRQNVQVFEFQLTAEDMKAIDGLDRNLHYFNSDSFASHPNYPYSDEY
Protocol: as §1, §2

HSD17B1 [2] = target: T5, HSD17B1 (Homo sapiens, UniProt P14061); assay: Steroid substrate panel against HSD17B family member B1; format: biochemical; conditions: substrate at 50 μM; estradiol set as 100%
T5 construct: made in house
T5 sequence (P14061 1-328): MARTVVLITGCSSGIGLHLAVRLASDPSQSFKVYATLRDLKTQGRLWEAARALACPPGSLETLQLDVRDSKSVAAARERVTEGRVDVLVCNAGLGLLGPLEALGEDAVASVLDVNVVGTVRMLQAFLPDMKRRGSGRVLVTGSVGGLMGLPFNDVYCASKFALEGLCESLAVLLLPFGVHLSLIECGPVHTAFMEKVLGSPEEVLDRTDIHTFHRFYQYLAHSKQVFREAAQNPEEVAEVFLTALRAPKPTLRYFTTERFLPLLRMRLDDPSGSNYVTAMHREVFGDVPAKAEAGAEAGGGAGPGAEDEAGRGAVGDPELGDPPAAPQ
Protocol: as §1, §2

[3] = target: T6, HEK293 cells overexpressing HSD17B13 isoform A (Homo sapiens, UniProt Q7Z5P4); assay: HEK293 cell-based substrate consumption assay (LC-MS); conditions: 1 μM substrate, 2 hours or 48 hours
T6 construct: expressed in transfected cells; host or cells: HEK293
T6 sequence (Q7Z5P4 20-300): T1 sequence (Q7Z5P4 20-300)

HSD17B10 = target: T7, HSD17B10 (Homo sapiens, UniProt Q99714); assay: Steroid substrate panel against HSD17B family member B10; format: biochemical; conditions: substrate at 50 μM; estradiol set as 100%
T7 construct: made in house
T7 sequence (Q99714 1-261): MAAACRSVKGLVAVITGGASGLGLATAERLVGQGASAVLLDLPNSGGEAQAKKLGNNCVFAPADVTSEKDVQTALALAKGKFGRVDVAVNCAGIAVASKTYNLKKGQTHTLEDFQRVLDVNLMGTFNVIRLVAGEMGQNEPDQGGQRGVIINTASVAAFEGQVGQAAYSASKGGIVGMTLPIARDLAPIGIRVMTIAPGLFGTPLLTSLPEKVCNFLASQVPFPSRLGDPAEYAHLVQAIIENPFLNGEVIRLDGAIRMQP
Protocol: as §1, §2

HSD17B11 = target: T8, HSD17B11 (Homo sapiens, UniProt Q8NBQ5); assay: Steroid substrate panel against HSD17B family member B11; format: biochemical; conditions: substrate at 50 μM; estradiol set as 100%
T8 construct: made in house
T8 sequence (Q8NBQ5 20-300): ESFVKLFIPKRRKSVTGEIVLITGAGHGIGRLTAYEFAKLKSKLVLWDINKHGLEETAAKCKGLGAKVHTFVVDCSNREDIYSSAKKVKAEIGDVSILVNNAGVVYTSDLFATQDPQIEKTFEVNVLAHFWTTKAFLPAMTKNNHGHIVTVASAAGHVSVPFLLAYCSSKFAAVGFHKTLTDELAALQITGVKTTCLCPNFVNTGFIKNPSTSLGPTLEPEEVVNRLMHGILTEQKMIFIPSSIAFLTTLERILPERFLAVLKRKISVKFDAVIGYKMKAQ
Protocol: as §1, §2

HSD17B1 [4] = target: T5, HSD17B1; assay: Cell-based assay of estrone to estradiol conversion by HSD17B1 (LC-MS); conditions: over 48 hour period
Excerpt: The capacity of HSD17B1 to convert estrone to estradiol, and the capacity of equilin to inhibit HSD17B1 was confirmed in a cell-based assay. Liquid chromatography and mass spectrometry (LC-MS) was used to measure estrone and estradiol concentration over time.

[5] = target: T9, recombinant HSD17B13 (E20-K300) (Homo sapiens, UniProt Q7Z5P4); assay: Biochemical NADH-linked screen of bioactive lipids as substrates (Example 2); conditions: 5 μM substrate, 100 μM NAD+, four hours at room temperature
T9 construct: recombinant HSD17B13 (E20-K300)
T9 sequence (Q7Z5P4 20-300): T1 sequence (Q7Z5P4 20-300)
Protocol: The biochemical assay described in Example 1 was repeated using bioactive lipids as substrates. In brief, 5 μM of each substrate was incubated in 40 μL reactions containing 1 μg of recombinant HSD17B13 (E20-K300) or beta-2 microglobulin (as a negative control) and 100 μM NAD^+ in 0.2M Tris-HCl, pH 7.5. After four hours of incubation at room temperature, 10 μL of each reaction was mixed with 10 μL luciferase and read, after 40 minutes, on an Envision Plate Reader (Perkin Elmer).

human HSD17B13 [6] = target: T1, human HSD17B13; assay: Biochemical NADH-linked screen of compound libraries as substrates for HSD17B13 (Example 1); conditions: 50 μM substrate, 0.5 mM NAD+, 24 hr at 25 degrees C.
Protocol: A biochemical assay was employed to screen the compounds from the library. The assay employed the following reaction conditions: 0.1 M Potassium phosphate buffer pH 7.5, 0.5 mM NAD^+, 50 μM substrate in DMSO 2% reaction volume or DMSO alone (no substrate) as a control, and 1 μl of purified enzyme or green fluorescent protein (GFP) as a control, with a final reaction volume of 100 microliters. Test samples were subject to a 24 hr incubation at 25 degrees C. After incubation, 20 μL reaction above+20 μL luciferase were incubated at room temperature for 1 h and read on an Envision Plate Reader (Perkin Elmer).

C[C@]12CCC(O)C[C@@H]1CC[C@@H]1[C@@H]2CC[C@]2(C)[C@@H](O)CC[C@@H]12 (stereo partly shown) [Androstanediol]
HSD17B13 Enzymatic Activity Relative Light Units (human HSD17B13 [1]; Steroid Library, 50 μM steroid): 488440 RLU | HSD17B13 Enzymatic Activity Percent Estradiol Control (human HSD17B13 [1]; Steroid Library, 50 μM steroid): 5.73% | Percent of Control (POC), B4 (HSD17B4): 63.0% | Percent of Control (POC), B2 (HSD17B2): 46.9% | Percent of Control (POC), B5 (HSD17B5): 216% | Percent of Control (POC), B1 (HSD17B1 [2]): 0.3% | conversion of substrate catalyzed by HSD17B13 in cells [3]: did not substantially catalyze the conversion | Percent of Control (POC), B10 (HSD17B10): 1.9% | Percent of Control (POC), B11 (HSD17B11): 0.0%

C[C@]12CC[C@H]3C(=CCc4cc(O)ccc43)[C@@H]1CCC2=O [Equilin]
HSD17B13 Enzymatic Activity Relative Light Units (human HSD17B13 [1]; Steroid Library, 50 μM steroid): 186840 RLU | HSD17B13 Enzymatic Activity Percent Estradiol Control (human HSD17B13 [1]; Steroid Library, 50 μM steroid): 0.46% | inhibition of conversion of estrone to estradiol by HSD17B1 (HSD17B1 [4]): can be inhibited by equilin

CCCCC/C=C\C[C@@H](O)/C=C/C=C/C=C\[C@@H](O)CCCC(=O)O [Leukotriene B4]
identified as enzymatic substrate of HSD17B13 (human HSD17B13 [1]; 265 unique putative substrates tested): enzymatic substrates | HSD17B13 Enzymatic Activity Relative Light Units (human HSD17B13 [1]; Bioactive Lipid Library, 5 μM bioactive lipid (Estradiol Control 50 μM)): 1743000 RLU | HSD17B13 Enzymatic Activity Percent Estradiol Control (human HSD17B13 [1]; Bioactive Lipid Library, 5 μM bioactive lipid): 115.40% | substrate for HSD17B13 [5]: is a substrate

C[C@]12CC[C@H]3[C@@H](CC[C@@]45O[C@@H]4C(O)=C(C#N)C[C@]35C)[C@@H]1CC[C@@H]2O [Trilostane]
suitability as substrate for HSD17B13 (human HSD17B13 [6]): suitable substrates | HSD17B13 Enzymatic Activity Relative Light Units (human HSD17B13 [1]; Steroid Library, 50 μM steroid): 1896560 RLU | HSD17B13 Enzymatic Activity Percent Estradiol Control (human HSD17B13 [1]; Steroid Library, 50 μM steroid): 30.32%

Reference: patent publication US11479802B2, “Assays for screening activity of modulators of members of the hydroxy steroid (17-beta) dehydrogenase (HSD17B) family” (Regeneron Pharmaceuticals, Inc., priority 2017, dated 2022)
